# Experimental data taken from patent publication US20200325177A1, “METHODS OF MAKING STREPTOGRAMIN COMPOSITIONS AND THE USE THEREOF” (THE REGENTS OF THE UNIVERSITY OF CALIFORNIA, priority 2017, published 2020).
# Where two headings read alike, the source gives them in different places.
# How the values were obtained:
# Type in all cases: cell-based
# S. pneumoniae = test: MIC, Gram-positive bacteria: S. pneumoniae; details: Streptococcus pneumoniae, column 10, read-out: Minimal Inhibitory Concentration (MIC) S. pneumoniae
# [1] = test system: S. aureus Vat A streptogramin; test: MIC, Gram-positive bacteria: S. aureus Vat A streptogramin; details: Staphylococcus aureus; Gram-positive; column 5; read-out: Minimal Inhibitory Concentration (MIC) S. aureus Vat A streptogramin
# P. aeruginosa ATCC 27853 = test: MIC, Gram-negative bacteria: P. aeruginosa ATCC 27853; details: Pseudomonas aeruginosa, ATCC27853, read-out: Minimal Inhibitory Concentration (MIC) P. aeruginosa ATCC 27853
# E. faecalis = test: MIC, Gram-positive bacteria: E. faecalis; details: Enterococcus faecalis, column 1, read-out: Minimal Inhibitory Concentration (MIC) E. faecalis
# Gram-Negative Organisms = test: microbe, parasite or virus in culture
# [2] = test system: K. pneumoniae multidrug-resistant; test: MIC, Gram-negative bacteria: K. pneumoniae multidrug-resistant; details: Klebsiella pneumoniae, read-out: Minimal Inhibitory Concentration (MIC) K. pneumoniae multidrug-resistant
# E. faecium ATCC 35667 = test: MIC, Gram-positive bacteria: E. faecium ATCC 35667; details: Enterococcus faecium, ATCC35667, column 2, read-out: Minimal Inhibitory Concentration (MIC) E. faecium ATCC 35667
# S. aureus = test: MIC, Gram-positive bacteria: S. aureus (strains not named); details: Staphylococcus aureus, read-out: Minimal Inhibitory Concentration (MIC) S. aureus
# [3] = test system: S. aureus Linezolid-resistant; cfr; test: MIC, Gram-positive bacteria: S. aureus Linezolid-resistant; cfr; details: Staphylococcus aureus, column 9, read-out: Minimal Inhibitory Concentration (MIC) S. aureus Linezolid-resistant
# H. influenzae ATCC 49247 = test: MIC, Gram-negative bacteria: H. influenzae ATCC 49247; details: Haemophilus influenzae, ATCC49247, read-out: Minimal Inhibitory Concentration (MIC) H. influenzae ATCC 49247
# E. faecium VRE; vanA = test: MIC, Gram-positive bacteria: E. faecium VRE; vanA; details: Enterococcus faecium, column 3, read-out: Minimal Inhibitory Concentration (MIC) E. faecium VRE
# [4] = test system: P. aeruginosa MDR clinical isolate; test: MIC, Gram-negative bacteria: P. aeruginosa MDR clinical isolate; details: Pseudomonas aeruginosa, read-out: Minimal Inhibitory Concentration (MIC) P. aeruginosa MDR clinical isolate
# [5] = Acinetobacter baumannii, ATCC19606, read-out: Minimal Inhibitory Concentration (MIC), A. baumannii ATCC 19606
# [6] = Escherichia coli, ATCC25922, read-out: Minimal Inhibitory Concentration (MIC), E. coli ATCC 25922
# [7] = Escherichia coli, read-out: Minimal Inhibitory Concentration (MIC), E. coli BAS2006, OMP C, OMP F
# [8] = Escherichia coli, read-out: Minimal Inhibitory Concentration (MIC), E. coli olC efflux defective
# [9] = Escherichia coli, read-out: Minimal Inhibitory Concentration (MIC), E. coli permeability mutant BAS1314, IMP4213ZAB::TN10
# [10] = Escherichia coli, read-out: Minimal Inhibitory Concentration (MIC), E. coli ΔompC768, KanR insert
# [11] = Klebsiella pneumoniae, ATCC43816, read-out: Minimal Inhibitory Concentration (MIC), K. pneumoniae ATCC 43816
# [12] = first unnamed S. aureus column (c4)
# [13] = fourth unnamed S. aureus column (c8)
# [14] = second unnamed S. aureus column (c6)
# [15] = third unnamed S. aureus column (c7)
Structure (SMILES),MIC (S. pneumoniae),MIC [1],MIC (P. aeruginosa ATCC 27853),MIC (E. faecalis),MIC (Gram-Negative Organisms; [5]),MIC (Gram-Negative Organisms; [6]),MIC (Gram-Negative Organisms; [7]),MIC (Gram-Negative Organisms; [8]),MIC (Gram-Negative Organisms; [9]),MIC (Gram-Negative Organisms; [11]),MIC [2],MIC (E. faecium ATCC 35667),MIC (S. aureus; [12]),MIC (S. aureus; [13]),MIC (S. aureus; [14]),MIC (S. aureus; [15]),MIC [3],MIC (H. influenzae ATCC 49247),MIC (E. faecium VRE; vanA),MIC [4],further results
CC1=C\[C@@H](O)CC(=O)Cc2nc(co2)C(=O)N2CCC[C@@H]2C(=O)O[C@H]([C@H](C)COC(=O)Nc2ccccc2)[C@H](C)/C=C/C(=O)NC\C=C\1 [SA0110196],32 µg/mL,> 64 µg/mL,> 64 µg/mL,> 64 µg/mL,> 64 µg/mL,> 64 µg/mL,32 µg/mL,2 µg/mL,8 µg/mL,> 64 µg/mL,> 64 µg/mL,16 µg/mL,32 µg/mL,16 µg/mL,32 µg/mL,64 µg/mL,> 64 µg/mL,16 µg/mL,64 µg/mL,> 64 µg/mL,MIC (Gram-Negative Organisms; [10]): > 64 µg/mL
"CC1=C\[C@@H](O)C[C@@H](F)Cc2nc(co2)C(=O)N2CCC[C@@H]2C(=O)O[C@H](C(C)C)[C@H](C)/C=C/C(=O)NC\C=C\1 [flopristin, reference compound]",2 µg/mL,8 µg/mL,> 64 µg/mL,> 64 µg/mL,> 64 µg/mL,32 µg/mL,0.25 µg/mL,1 µg/mL,< 0.06 µg/mL,> 64 µg/mL,> 64 µg/mL,0.5 µg/mL,0.5 µg/mL,0.5 µg/mL,0.5 µg/mL,1 µg/mL,> 64 µg/mL,0.25 µg/mL,2 µg/mL,> 64 µg/mL,MIC (Gram-Negative Organisms; [10]): 64 µg/mL
CC1=C\[C@@H](O)CC(=O)Cc2nc(co2)C(=O)N2CCC[C@@H]2C(=O)O[C@H]([C@H](C)COC(=O)Nc2coc(C)n2)[C@H](C)/C=C/C(=O)NC\C=C\1 [SA0110210],64 µg/mL,> 64 µg/mL,> 64 µg/mL,> 64 µg/mL,> 64 µg/mL,> 64 µg/mL,> 64 µg/mL,8 µg/mL,8 µg/mL,> 64 µg/mL,> 64 µg/mL,64 µg/mL,> 64 µg/mL,> 64 µg/mL,> 64 µg/mL,> 64 µg/mL,> 64 µg/mL,16 µg/mL,64 µg/mL,> 64 µg/mL,MIC (Gram-Negative Organisms; [10]): > 64 µg/mL
"CC1=C\[C@@H](O)C[C@@H](O)Cc2nc(co2)C(=O)N[C@H](C)C(=O)O[C@H](C(C)C)[C@H](C)/C=C/C(=O)NC\C=C\1 [madumycin II, Madumycin II, reference compound]",4 µg/mL,> 64 µg/mL,> 64 µg/mL,> 64 µg/mL,> 64 µg/mL,> 64 µg/mL,1 µg/mL,2 µg/mL,0.5 µg/mL,> 64 µg/mL,> 64 µg/mL,0.5 µg/mL,8 µg/mL,8 µg/mL,8 µg/mL,16 µg/mL,> 64 µg/mL,1 µg/mL,8 µg/mL,> 64 µg/mL,
CC1=C\[C@@H](O)CC(=O)Cc2nc(co2)C(=O)N2CCC[C@@H]2C(=O)O[C@H]([C@H](C)COC(=O)Nc2cnccn2)[C@H](C)/C=C/C(=O)NC\C=C\1 [SA0110215],64 µg/mL,> 64 µg/mL,> 64 µg/mL,> 64 µg/mL,> 64 µg/mL,> 64 µg/mL,> 64 µg/mL,8 µg/mL,16 µg/mL,> 64 µg/mL,> 64 µg/mL,64 µg/mL,> 64 µg/mL,> 64 µg/mL,> 64 µg/mL,> 64 µg/mL,> 64 µg/mL,16 µg/mL,> 64 µg/mL,> 64 µg/mL,MIC (Gram-Negative Organisms; [10]): > 64 µg/mL
COc1ccc(NC(=O)OC[C@H](C)[C@H]2OC(=O)[C@H]3CCCN3C(=O)c3coc(n3)CC(=O)C[C@H](O)/C=C(C)/C=C/CNC(=O)/C=C/[C@H]2C)cc1 [SA0110040],16 µg/mL,> 64 µg/mL,> 64 µg/mL,> 64 µg/mL,> 64 µg/mL,> 64 µg/mL,16 µg/mL,2 µg/mL,8 µg/mL,> 64 µg/mL,> 64 µg/mL,16 µg/mL,32 µg/mL,16 µg/mL,32 µg/mL,64 µg/mL,> 64 µg/mL,16 µg/mL,64 µg/mL,> 64 µg/mL,
CC1=C\[C@@H](O)CC(=O)Cc2nc(co2)C(=O)N2CCC[C@@H]2C(=O)O[C@H]([C@@H](C)COC(=O)Nc2cc3ccccc3cn2)[C@H](C)/C=C/C(=O)NC\C=C\1 [SA0110118],2 µg/mL,> 64 µg/mL,> 64 µg/mL,> 64 µg/mL,> 64 µg/mL,> 64 µg/mL,8 µg/mL,2 µg/mL,2 µg/mL,> 64 µg/mL,> 64 µg/mL,4 µg/mL,8 µg/mL,8 µg/mL,8 µg/mL,16 µg/mL,> 64 µg/mL,> 64 µg/mL,16 µg/mL,> 64 µg/mL,
CC1=C\[C@@H](O)CC(=O)Cc2nc(co2)C(=O)N[C@H](Cc2c[nH]c3ccccc23)C(=O)O[C@H](C(C)C)[C@H](C)/C=C/C(=O)NC\C=C\1 [SA0202089],32 µg/mL,64 µg/mL,> 64 µg/mL,> 64 µg/mL,> 64 µg/mL,> 64 µg/mL,32 µg/mL,16 µg/mL,8 µg/mL,> 64 µg/mL,> 64 µg/mL,32 µg/mL,32 µg/mL,32 µg/mL,32 µg/mL,32 µg/mL,> 64 µg/mL,> 64 µg/mL,32 µg/mL,> 64 µg/mL,
CC1=C\[C@@H](O)CC(=O)Cc2nc(co2)C(=O)N2CCC[C@@H]2C(=O)O[C@H]([C@H](C)CO)[C@H](C)/C=C/C(=O)NC\C=C\1 [SA0110170],64 µg/mL,> 64 µg/mL,> 64 µg/mL,> 64 µg/mL,> 64 µg/mL,> 64 µg/mL,> 64 µg/mL,32 µg/mL,32 µg/mL,> 64 µg/mL,> 64 µg/mL,> 64 µg/mL,> 64 µg/mL,> 64 µg/mL,> 64 µg/mL,> 64 µg/mL,> 64 µg/mL,32 µg/mL,> 64 µg/mL,> 64 µg/mL,MIC (Gram-Negative Organisms; [10]): > 64 µg/mL
"CC1=C\[C@@H](O)CC(=O)Cc2nc(co2)C(=O)N2CCC=C2C(=O)O[C@H](C(C)C)[C@H](C)/C=C/C(=O)NC\C=C\1 [virginiamycin M1, Virginiamycin M1, reference compound]",4 µg/mL,32 µg/mL,> 64 µg/mL,32 µg/mL,> 64 µg/mL,> 64 µg/mL,> 64 µg/mL,2 µg/mL,0.25 µg/mL,> 64 µg/mL,> 64 µg/mL,2 µg/mL,4 µg/mL,2 µg/mL,2 µg/mL,8 µg/mL,> 64 µg/mL,1 µg/mL,4 µg/mL,> 64 µg/mL,
CC1=C\[C@@H](O)CC(=O)Cc2nc(co2)C(=O)N2CCC[C@@H]2C(=O)O[C@H]([C@H](C)COC(=O)Nc2cccnc2)[C@H](C)/C=C/C(=O)NC\C=C\1 [SA0110205],32 µg/mL,> 64 µg/mL,> 64 µg/mL,> 64 µg/mL,> 64 µg/mL,> 64 µg/mL,> 64 µg/mL,8 µg/mL,16 µg/mL,> 64 µg/mL,> 64 µg/mL,32 µg/mL,> 64 µg/mL,> 64 µg/mL,> 64 µg/mL,> 64 µg/mL,> 64 µg/mL,32 µg/mL,64 µg/mL,> 64 µg/mL,MIC (Gram-Negative Organisms; [10]): > 64 µg/mL
